Patent US20100304972A1, “HERBICIDE COMPOSITION” (priority 2007, published 2010)

What was measured:
Format in all cases: in vivo
Stellaria media = test: Test Example 2: spray on plants from above ten days after sowing, herbicidal activity; settings: sprayed on plants ten days after sowing, 21 days after treatment, scale 0-10
Experimental: (§1) The phytotoxicity to a crop is evaluated by indicating “harmless” in case that no or little phytotoxicity is recognized, “light” in case that light phytotoxicity is recognized, “medium” in case that medium phytotoxicity is recognized, or “severe” in case that severe phytotoxicity is recognized.
(§2) Field soil was filled in a plastic pot of 32 cm wide, 22 cm long and 8 cm high, and seeds of wheat (species: Norin No. 61), Sinapis arvensis, and Stellaria media were sowed thereon.
(§3) The plants were raised in a greenhouse and herbicidal activity and phytotoxicity were determined 21 days after the chemical treatment.

[1] = system: wheat (species: Norin No. 61); test: Test Example 2: spray on plants from above ten days after sowing, phytotoxicity to crop; settings: 800 g/ha, sprayed on plants ten days after sowing, 21 days after treatment
Experimental: as §1, §2, §3

Chenopodim album = test: Test Example 2: spray on plants from above ten days after sowing, herbicidal activity; settings: sprayed on plants ten days after sowing, 21 days after treatment, scale 0-10
Sinapis arvensis = test: as above; settings: sprayed on plants ten days after sowing, 21 days after treatment, scale 0-10
Experimental: as §1, §2, §3

Cyperus esculentus = test: Test Example 4: soil spray on day of planting tubers, herbicidal activity; settings: 14 days after treatment, scale 0-10
Text: Field soil was filled in a plastic pot of 32 cm wide, 22 cm long and 8 cm high, and tubers of Cyperus esculentus were planted.
On the day of planting, each of an imazosulfuron suspension formulation (a 40% imazosulfuron-containing suspension formulation, trade name: Sibatite 40 manufactured by Sumitomo Chemical Co., Ltd.), a pendimethalin emulsifiable concentrate (a 30% pendimethalin-containing emulsifiable concentrate, trade name: Go-go-san 30 manufactured by BASF) and a mixed formulation prepared by mixing the imazosulfuron suspension formulation and the pendimethalin emulsifiable concentrate was diluted with water and uniformly sprayed on the soil with a small sprayer so that their amounts became those as shown in Table 4.
The plants were raised in a greenhouse and herbicidal activity was determined 14 days after the chemical treatment.

SMILES: CCC(CC)Nc1c([N+](=O)[O-])cc(C)c(C)c1[N+](=O)[O-] [Pendimethalin, N-(1-ethylpropyl)-3,4-dimethyl-2,6-dinitrobenzenamine]
- Herbicidal activity Sm (Stellaria media; 800 g/ha): 9
- Phytotoxicity Wheat [1]: harmless
- Herbicidal activity Ca (Chenopodim album; 800 g/ha): 5
- Herbicidal activity Sa (Sinapis arvensis; 800 g/ha): 2
- Herbicidal activity (Cyperus esculentus; 50 g/ha): 0
- Herbicidal activity (Cyperus esculentus; 200 g/ha): 0

SMILES: COc1cc(OC)nc(NC(=O)NS(=O)(=O)c2c(Cl)nc3ccccn23)n1 [Imazosulfuron, 1-(2-chloroimidazo[1,2-a]pyridin-3-ylsulfonyl)-3-(4,6-dimethoxypyrimidin-2-yl)urea]
- Herbicidal activity Sm (Stellaria media; 100 g/ha): 10
- Herbicidal activity Ca (Chenopodim album; 100 g/ha): 3
- Herbicidal activity Sa (Sinapis arvensis; 100 g/ha): 10
- Herbicidal activity (Cyperus esculentus; 25 g/ha): 4
